Where two headings read alike, the source gives them in different places.

As a reminder, the melting point is the temperature, or range, at which the solid turns liquid.

For data set [1], the system named is C4-2 cells. The data set is described as follows: MTT assay (cell viability). The settings on record: 48 h. A general note: Formazan colour is commonly taken as a measure of viable cells.
Description: (§2) After 48 h, medium was removed and 250 μl of a 5 mg/ml MTT (Sigma, St Louis, Mo., USA) solution in PBS was added to each well. After 4 h incubation at 37° C., the MTT solution was removed, 200 μl of DMSO (Sigma) was added and cells were incubated for 5 min. Two hundred microliters of each samples was distributed in 96-well plates for an optical density reading at 540 nm.
In data set [2] the test system is C4-2 cells. The data set is described as follows: Flow cytometry analysis of cell cycle. The settings on record: 25 μM, 48 h; untreated cells 22. The class given is cell-based, human. Here is the method: (§1) Cells were then rinsed in PBS, pelleted at 400 g for 5 min and maintained on ice for 20 min before resuspension in a […] propidium iodide (Sigma) solution. Cells were kept overnight at 4° C. and the percentages of cells in G1, S and G2-M phases of the cell cycle were measured with a Coulter Epics XL™ flow cytometer (Becton Dickinson) using 488-nm laser excitation. For apoptosis experiment, MEFs were treated with the tested compound at 25 μM for 24 h, then rinced in PBS, pelleted at 400 g for 5 min and stained with annexinV-FITC (Roche Diagnostics, Meylan, France) for 15 min at 4° C. The percentage of annexin positive cells was immediately analysed using 488-nm laser excitation.

Data set [3] relates to LNCaP cells. The data set is described as follows: Flow cytometry analysis of cell cycle. The class given is cell-based, human. The settings on record: 25 μM, 48 h; untreated cells 20. Here is the method:
as §1

Data set [4] has as its system C4-2 cells. The data set is described as follows: Proliferation by BrDU incorporation. The note with it: for % Inhibition of proliferation at 25 μM (BrDU) on C4-2: 48 h of treatment.
Description: (§3) LNCaP and C4-2 cells grown on coverslips were incubated for 4 hours with BrdU (100 μM final) at 24 hours and 48 hours following SCD-1 knock-down. Cells were then fixed and permeabilized with cold methanol for 10 min at −20° C. After 3 washes with PBS, DNA was denaturated with 4NHCL for 10 min at RT, and cells were incubated with blocking buffer (PBS-1% BSA). BrDU was then detected with anti-BrDU monoclonal antibody 1:50 (Dako, Carpinteria, Calif.) for 1 hour at 37° C. After 3 washes with PBS, cells were incubated with an FITC-conjugated anti-mouse secondary antibody 1:150 (Jackson Immunoresearch) for 30 min at 37° C., and slides were mounted in mowiol.
Data set [5] relates to C4-2 cells.
Description: as §2
Data set [6] has as its system LNCaP cells. The data set is described as follows: Proliferation by BrDU incorporation. It counts as cell-based, human. The note with it: for % Inhibition of proliferation at 25 μM (BrDU) on LNCaP: 48 h of treatment.
Description: as §3
The subject of data set [7] is SCD1 mRNA and protein. The data set is described as follows: SCD-1 knock-down by siRNA, mRNA and protein expression. It counts as cell-based, human. Here is the method: For small interfering (si) RNA experiments, transfection of LNCaP or C4-2 cells was carried out with pre-designed ON-TARGET plus siRNA oligonucleotides control or targeting the human SCD-1 sequence GCACAUCAACUUCACCACA (Dharmacon, Lafayette, Co, USA).
Nucleofaction of cells with 2.5 μg siRNA were performed on 2×10^6 cells using Amaxa nucleofactor R kit (Lonza, Cologne, Germany). Twenty-four hours and 48 hours after transfection, cells were processed for cell proliferation by BrdU staining and harvested for RNA and protein analysis.
RNA was extracted with the use of TRI-Reagent (Euromedex, Mundolsheim, France) according to the manufacturers' recommendations. Reverse transcription of total RNA was performed at 37° C. using the M-MLV reverse transcriptase (Invitrogen) and random hexanucleotide primers (Promega, Madison, Wis.), followed by a 15 min inactivation at 70° C. Quantitative PCR was conducted using the primers specific for human SCD1 and SYBR Green Light Cycler Master Mix (Eurofins MWG Operon, Roissy CDG). […] Values are expressed as the relative mRNA level of specific gene expression as obtained using the formula 2^−(ΔCt).

Turning to `COc1ccc(Br)c(C(=O)N2CCN(S(=O)(=O)c3ccccc3)CC2)c1` [Example 1, 1N-[(2-bromo-5-methoxybenzoyl)]-4N-[(phenyl)sulfonyl]piperazine], the “Viable C4-2 cells at 25 μM (% of control)” value in data set [1] is recorded as 45 % of control. Moreover, the “% C4-2 cells in phase S at 25 μM” value in data set [2] is 20.1%. Besides, the “% LNCaP cells in phase S at 25 μM” value in data set [3] was determined as 18%. Also, the “% Inhibition of proliferation at 25 μM (BrDU) on C4-2” value (“% Inhibition … on C4-2” for short) in data set [4] came to 22.7 ± 11.2%.
In turn, `COc1ccc(Br)c(C(=O)N2CCN(S(=O)(=O)c3ccc(F)cc3)CC2)c1` [Example 2, 1-[(2-bromo-5-methoxybenzoyl)]-4-[(4-fluorophenyl)sulfonyl]piperazine] returned a melting point of 202 °C. The “Viable C4-2 cells at 25 μM (% of control)” value in data set [1] is 49 % of control. In addition, the “% C4-2 cells in phase S at 25 μM” value in data set [2] came to 11.8%. For the same molecule, the “% LNCaP cells in phase S at 25 μM” value in data set [3] was determined as 5%. Besides, the inhibition at 25 µM in data set [4] (Homo sapiens, C4-2, 48 h, read-out: % Inhibition of proliferation at 25 μM (BrDU) on C4-2) turned out to be 37.2 ± 8.8%.
Regarding `COc1ccc(Br)c(C(=O)N2CCN(S(=O)(=O)c3ccc(C(F)(F)F)cc3)CC2)c1` [Example 3, 1N-[(2-bromo-5-methoxybenzoyl)]-4N-[(4-trifluoromethylphenyl)sulfonyl]piperazine], the “% C4-2 cells in phase S at 25 μM” value in data set [2] was 2.8%. For the same molecule, the “% LNCaP cells in phase S at 25 μM” value in data set [3] amounted to 10%. Moreover, in data set [4], the “% Inhibition … on C4-2” value worked out at 65.8 ± 6.4%.
The corresponding values for `COc1ccc(Br)c(C(=O)N2CCN(S(=O)(=O)c3ccc(C(C)=O)cc3)CC2)c1` [Example 4, 1N-[(2-bromo-5-methoxybenzoyl)]-4N-[(4-acetylphenyl)sulfonyl]piperazine] are 19.7%, 18% and 36 ± 5.4%.
In the same order, the values of `CCCc1ccc(S(=O)(=O)N2CCN(C(=O)c3cc(OC)ccc3Br)CC2)cc1` [Example 5, 1N-[(2-bromo-5-methoxybenzoyl)]-4N-[(4-propylphenyl)sulfonyl]piperazine] are 10.7%, 3% and 26.8 ± 20.2%.
Take `COc1ccc(Br)c(C(=O)N2CCN(S(=O)(=O)c3ccc([N+](=O)[O-])cc3)CC2)c1` [Example 6, 1N-[(2-bromo-5-methoxybenzoyl)]-4N-[(4-nitrophenyl)sulfonyl]piperazine]: in data set [1], the “Viable C4-2 cells at 25 μM (% of control)” value was 42 % of control. Also, the “% C4-2 cells in phase S at 25 μM” value in data set [2] is reported as 19.8%. Further, in data set [3], the “% LNCaP cells in phase S at 25 μM” value was 15%. Further, the “% Inhibition … on C4-2” value in data set [4] came out at 0%.
For `COc1ccc(Br)c(C(=O)N2CCN(S(=O)(=O)c3cccc(C(F)(F)F)c3)CC2)c1` [Example 7, 1N-[(2-bromo-5-methoxybenzoyl)]-4N-[(3-trifluoromethylphenyl)sulfonyl]piperazine], the “% Inhibition … on C4-2” value in data set [4] amounted to 31.6 ± 7.61%. Also, the “Viable C4-2 cells at 25 μM (% of control)” value in data set [5] is reported as 44 % of control. In addition, the “% Inhibition of proliferation at 25 μM (BrDU) on LNCaP” value (“% Inhibition … on LNCaP” for short) in data set [6] amounted to 16.7%.
Turning to `COc1ccc(Br)c(C(=O)N2CCN(S(=O)(=O)c3ccccc3C(F)(F)F)CC2)c1` [Example 8, 1N-[(2-bromo-5-methoxybenzoyl)]-4N-[(2-trifluoromethylphenyl)sulfonyl]piperazine], the “% Inhibition … on C4-2” value in data set [4] turned out to be 84.4 ± 8.5%. Further, the “Viable C4-2 cells at 25 μM (% of control)” value in data set [5] was 73 % of control. Further, in data set [6], the “% Inhibition … on LNCaP” value was 40.1%.
Take `COc1ccc(Br)c(C(=O)N2CCN(S(=O)(=O)c3ccc(-c4ccccc4)cc3)CC2)c1` [Example 9, 1N-[(2-bromo-5-methoxybenzoyl)]-4N-[(4-biphenyl)sulfonyl]piperazine]: the “Viable C4-2 cells at 25 μM (% of control)” value in data set [1] is listed as 90 % of control. In addition, the “% Inhibition … on C4-2” value in data set [4] came out at 60.5 ± 5.7%. Further, the “% Inhibition … on LNCaP” value in data set [6] came to 48.3%.
The corresponding values for `COc1ccc(Br)c(C(=O)N2CCN(S(=O)(=O)c3ccc(C)cc3)CC2)c1` [Example 10, 1N-[(2-bromo-5-methoxybenzoyl)]-4N-[(4-methylphenyl)sulfonyl]piperazine] are 59 % of control, 0% and 0%.
As for `COc1ccc(Br)c(C(=O)N2CCN(S(=O)(=O)c3ccc(OC(F)(F)F)cc3)CC2)c1` [Example 11], the “% Inhibition … on C4-2” value in data set [4] worked out at 63 ± 4.1%. In addition, in data set [5], the “Viable C4-2 cells at 25 μM (% of control)” value was 74 % of control. Further, the “% Inhibition … on LNCaP” value in data set [6] was found to be 45.5%.
Take `COc1ccc(Br)c(C(=O)N2CCN(S(=O)(=O)c3ccc(F)cc3F)CC2)c1` [Example 12, 1N-[(2-bromo-5-methoxybenzoyl)]-4N-[(2, 4 difluorophenyl)sulfonyl]piperazine]: the “% Inhibition … on C4-2” value in data set [4] stood at 55.2 ± 0.5%. For the same molecule, in data set [5], the “Viable C4-2 cells at 25 μM (% of control)” value is given as 70 % of control. Moreover, in data set [6], the “% Inhibition … on LNCaP” value is given as 60.6%.
In the same order, the values of `COc1ccc(Br)c(C(=O)N2CCN(S(=O)(=O)c3ccccc3F)CC2)c1` [Example 13, 1N-[(2-bromo-5-methoxybenzoyl)]-4N-[(2-fluorophenyl)sulfonyl]piperazine] are 55.6 ± 3.1%, 56 % of control and 27.1%.
The corresponding values for `COc1ccc(Br)c(C(=O)N2CCN(S(=O)(=O)c3cccc(F)c3)CC2)c1` [Example 15, 1N-[(2-bromo-5-methoxybenzoyl)]-4N-[(3-fluorophenyl)sulfonyl]piperazine] are 35.7 ± 6%, 83 % of control and 0%.
For `COc1ccc(Br)c(C(=O)N2CCN(S(=O)(=O)c3ccc(Cl)cc3)CC2)c1` [Example 18, 1N-[(2-bromo-5-methoxybenzoyl)]-4N-[(4-chlorophenyl)sulfonyl]piperazine], the “Viable C4-2 cells at 25 μM (% of control)” value in data set [1] was 59 % of control. Further, in data set [4], the “% Inhibition … on C4-2” value is given as 38.1 ± 7.1%. For the same molecule, in data set [6], the “% Inhibition … on LNCaP” value worked out at 49.7%.
The corresponding values for `COc1ccc(Br)c(C(=O)N2CCN(S(=O)(=O)Cc3ccccc3)CC2)c1` [Example 20, 1N-[(2-bromo-5-methoxybenzoyl)]-4N-[(phenylmethane)sulfonyl]piperazine] are 37 % of control, 46.3 ± 11.7% and 16.8%.
On to `O=C(c1cscn1)N1CCN(S(=O)(=O)c2ccc(F)cc2F)CC1` [Example 37, 1N-[4-thiazolecarbonyl]-4-N-[(2,4-difluorophenyl)sulfonyl]piperazine], for which the “% Inhibition … on C4-2” value in data set [4] is 37 ± 7.8%.
Take “siRNA: pre-designed ON-TARGET plus siRNA oligonucleotides targeting the human SCD-1 sequence GCACAUCAACUUCACCACA (Dharmacon) (chemistry not given here) [reference compound]”: the “SCD1 mRNA and protein expressions” value in data set [7] is listed as “blocked”. Further, the “proliferation after SCD-1 knock-down” value in data set [4] (C4-2, siRNA) is recorded as “marked decrease”; in data set [6] (LNCaP, siRNA), “marked decrease”.

Values taken from patent US20130012709A1, “NOVEL INHIBITORS OF STEAROYL-CoA-DESATURASE-1 AND THEIR USES” (CENTRE NATIONAL DE LA RECHERCHE SCIENTIFIQUE, priority 2009, published 2013).
